Results taken from US20080306114A1, “Human G Protein-Coupled Receptor and Modulators Thereof for the Treatment of Hyperglycemia and Related Disorders” (Arena Pharmaceuticals, Inc, priority 2004, published 2008).
“Also recorded” adds a separate entry of the source.

Columns and labels:
primary human adipocytes = assay: In vitro glucose uptake assay in primary human adipocytes; format: cell-based; conditions: 50 μM for 3 hr
Protocol: (§1) The in vitro glucose uptake assay was carried out as described here.
(§2) KRPH buffer: 5 mM NaHPO4, pH 7.4 (Make KRPH buffer fresh each time) • 20 mM Hepes, pH 7.4 • 1 mM MgSO4 • 1 mM CaCl2 • 136 mM NaCl • 4.7 mM KCl • 1% BSA
(§3) For each well, add 1 μl containing 1 μCi [^3H]-2-DOG and 1 μl cold stock 2-DOG and 2 ml KRPH.
(§4) Use CytoB at 10 μM final to block carrier-mediated uptake. Also use this concentration at the end to stop the reaction. The stop buffer is PBS plus 10 μm CytoB (“PBS”).
(§5) 1. Starve cells for at least 2 hrs.
(§6) 2. Wash cells 2 times with KRPH buffer and add 2 mls of KRPH to the well.
(§7) 3. Treat cells with insulin and/or with test compound, or with vehicle (Control), for 20 min.
(§8) 4. After 20 min, aspirate the buffer from the well and immediately add 1 ml of KRPH buffer plus 2-DOG. For CytoB-treated cells, add CytoB 5 min before uptake assay.
(§9) 5. After 4 min, aspirate the buffer from the well and add 3 mls of cold PBS. After completing the assay, wash the cells in each well 2 times with cold PBS. Aspirate the Stop PBS completely, and then add 700 ul of 1% Triton X. Place in 37° C. incubator for 30 min.
(§10) 6. Count CPM in total lysate. Calculate CPM/well.
(§11) Subtract the CytoB value from the value obtained for each of cells treated with insulin and/or with test compound and cells treated with vehicle (Control).
Human preadipocytes (Cambrex) were differentiated into adipocytes. The differentiated primary human adipocytes were treated with or without 50 μM Compound 2 for 3 hr in serum-free medium. The human adipocytes were then washed with fresh KRPH buffer twice and treated with or without 100 nM insulin for 20 min. After treatment with or without insulin, glucose uptake was determined according to Example 17.

mouse 3T3L1 adipocytes = assay: In vitro glucose uptake assay in 3T3L1 adipocytes; format: cell-based
Protocol: as §1, §2, §3, §4, §5, §6, §7, §8
5. After 4 min, aspirate the buffer from the well and add 3 mls of cold PBS. After completing the assay, wash the cells in each well 2 times with cold PBS. […]
Differentiated mouse 3T3L1 adipocytes were treated with 50 μM Compound 2 for various times, after which glucose uptake was determined according to Example 17.
Differentiated mouse 3T3L1 adipocytes were treated with (“Compound 2”) or without (“Control”) Compound 2 in serum-free medium for 3 hr. […] After treatment with insulin, glucose uptake was determined according to Example 17.

endogenous human RUP43 [1] = target: T1, endogenous human RUP43 (Homo sapiens, UniProt Q8TDU6); assay: Melanophore assay; format: cell-based; design: expressed in transfected cells; host or cells: melanophores (skin cells of lower vertebrates), transfected by electroporation
T1 sequence (Q8TDU6 1-330): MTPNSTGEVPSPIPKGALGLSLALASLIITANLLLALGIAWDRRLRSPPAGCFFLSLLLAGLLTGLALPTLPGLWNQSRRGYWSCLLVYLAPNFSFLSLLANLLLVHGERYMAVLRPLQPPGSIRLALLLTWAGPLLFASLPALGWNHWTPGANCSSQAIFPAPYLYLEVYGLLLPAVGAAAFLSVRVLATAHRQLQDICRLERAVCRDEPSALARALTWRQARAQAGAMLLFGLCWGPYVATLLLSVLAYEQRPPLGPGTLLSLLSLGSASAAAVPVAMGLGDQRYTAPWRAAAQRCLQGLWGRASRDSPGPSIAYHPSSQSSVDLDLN
Excerpt: Melanophores are skin cells found in lower vertebrates. They contain pigmented organelles termed melanosomes. Melanophores are able to redistribute these melanosomes along a microtubule network upon G-protein coupled receptor (GPCR) activation. The result of this pigment movement is an apparent lightening or darkening of the cells. In melanophores, the decreased levels of intracellular cAMP that result from activation of a […] receptor cause melanosomes to migrate to the center of the cell, resulting in a dramatic lightening in color. If cAMP levels are then raised, following activation of a Gs-coupled receptor, the melanosomes are re-dispersed and the cells appear dark again. The increased levels of diacylglycerol that result from activation of Gq-coupled receptors can also induce this re-dispersion. In addition, the technology is also suited to the study of certain receptor tyrosine kinases. The response of the melanophores takes place within minutes of receptor activation and results in a simple, robust color change. The response can be easily detected using a conventional absorbance microplate reader or a modest video imaging system. Unlike other skin cells, the melanophores derive from the neural crest and appear to express a full complement of signaling proteins. In particular, the cells express an extremely wide range of G-proteins and so are able to functionally express almost all GPCRs.
Melanophores can be utilized to identify compounds, including natural ligands, against GPCRs. This method can be conducted by introducing test cells of a pigment cell line capable of dispersing or aggregating their pigment in response to a specific stimulus and expressing an exogenous clone coding for the GCPR. A stimulant, e.g., melatonin, sets an initial state of pigment disposition wherein the pigment is aggregated within the test cells if activation of the GPCR induces pigment dispersion. […] The test cells are then contacted with chemical compounds, and it is determined whether the pigment disposition in the cells changed from the initial state of pigment disposition. […]

[2] = system: primary human skeletal muscle cells; assay: In vitro glucose uptake assay in primary human skeletal muscle cells; format: cell-based
Protocol: as §1, §2, §3, §4, §5, §6, §7, §8, §9, §10, §11
Primary human skeletal muscle cells obtained from Cambrex were grown to 50% confluence and then differentiated on culture with inducing medium for 5 to 7 days. The differentiated primary human skeletal muscle cells were then transferred to growth medium for 7 to 10 days.
Differentiated human skeletal muscle cells were treated with or without various concentrations of Compound 2 in serum-free medium for 3 hr. After treatment with or without Compound 2, the cells were washed twice with fresh KRPH buffer. […] After treatment with or without insulin, glucose uptake was determined according to Example 17. […]
Differentiated human skeletal muscle cells were treated with 50 μM Compound 2 for various time periods. At the end of each treatment period, glucose uptake was determined according to Example 17.

rat L6 myoblast cells = assay: In vitro glucose uptake assay in L6 myoblast cells; format: cell-based
Protocol: as §1, §2, §3, §4, §5, §6, §7, §8, §9, §10, §11
Rat skeletal muscle L6 myoblast cells were obtained from ATCC and grown in 24-well plates to confluence.
Confluent L6 cells were treated with or without various concentrations of Compound 2 in serum-free medium for 3 hr. The L6 cells were then washed twice with KRPH buffer. L6 cells which had been treated with Compound 2 were incubated with KRPH buffer for 20 min; L6 cells which had not been treated with Compound 2 were treated with 10 nM or 100 nM insulin for 20 min. After treatment with or without insulin, glucose uptake was determined according to Example 17. […] As skeletal muscle cells are responsible for 80% of glucose disposal in vivo, the results obtained indicate that RUP43 agonist is an attractive candidate for providing better glucose disposal in vivo than does insulin.
Confluent L6 myoblast cells were treated with 50 μM Compound 2 for various times. At the end of each treatment period, glucose uptake was determined according to Example 17.
Confluent rat L6 myoblast cells were treated with or without 50 μM Compound 2 for 3 hr in serum-free medium. The L6 cells were then washed twice with fresh KRPH buffer. The L6 cells were then treated with or without 100 nM insulin for 20 min. After treatment with or without insulin, glucose uptake was determined according to Example 17. […] The results further indicate that RUP43 agonist can increase insulin efficacy, thereby lowering the concentration of insulin required to achieve maximal glucose uptake. […]

[3] = system: Mock transfected HEK293 cells (empty pCMV vector); assay: Whole-cell cyclase Flashplate cAMP assay, Mock transfected HEK293 cells; format: cell-based, human; conditions: serially diluted compound, 1 hour
Protocol: (§12) HEK 293 cells obtained from ATCC were used for all assays. Culture media consisted of […] of DMEM supplemented with 10% fetal bovine serum (Gibco, BRL). Cyclic AMP measurements were determined using the Adenylyl Cyclase Activation Flashplate® Assay with direct cAMP [^125I] Detection system.
(§13) HEK 293 cells (5×10^5 cells/ml) were plated in 15 cm dishes. […] Briefly, transfection mixture consisting of OptiMEM (Gibco, BRL) and FuGENE 6 reagent were mixed together and allow to incubate for 5 minutes at room temperature. Transfection reagent was added drop-wise into a separate tube containing 2 μg of endogenous human RUP43 receptor plasmid (Tranfected) or 2 μg of empty pCMV vector (Mock) and allowed to incubate for 15 minutes at room temperature. The DNA/transfection mixture was added drop-wise to each perspective plate and incubated over night in a humidified incubator maintained at 37° C., 95/5% […]. The next day, the media was replaced with normal growth media and the cells were incubated over night.
(§14) On Day 3, the cells were rinsed once with PBS and dislodged from the plate using a nonenzymatic cell-dissociation buffer (Gibco, BRL) and resuspended in assay stimulation Buffer® Perkin Elmer) at a density of 2×10^6 cell/ml for measurement of cAMP. […] At the end of the 2 hour incubation, the plate was aspirated and cAMP levels were determined using Wallac 1450 microbeta counter.

endogenous human RUP43 [4] = target: T1, endogenous human RUP43; assay: Whole-cell cyclase Flashplate cAMP assay, RUP43-transfected HEK293 cells; format: cell-based; design: expressed in transfected cells; host or cells: HEK293 cells (ATCC), transient transfection with FuGENE 6
Protocol: as §12, §13, §14

[5] = various concentrations 3 hr vs 10 nM or 100 nM insulin 20 min

Row | SMILES | level of stimulated glucose uptake compared with insulin (primary human adipocytes; absence of insulin vs 100 nM insulin) | insulin-stimulated glucose uptake (primary human adipocytes; then 100 nM insulin 20 min) | glucose uptake (primary human adipocytes; without insulin) | glucose uptake (mouse 3T3L1 adipocytes; 50 μM Compound 2 for various times, no insulin) | insulin-stimulated glucose uptake (mouse 3T3L1 adipocytes; compound 3 hr in serum-free medium, then various concentrations of insulin 20 min) | agonist of RUP43 (identification) (endogenous human RUP43 [1]; melanophore technology) | EC50 (endogenous human RUP43 [1]; melanophores transfected with endogenous human RUP43, 100 uM-51.2 pM, one hour) [µM] | Curve height (endogenous human RUP43 [1]; percent control response vs positive control wells (200) and negative control wells (100)) | time course of glucose uptake ([2]; 50 μM for various time periods) | glucose uptake compared with insulin [2, 5] | glucose uptake ([2]; various concentrations for 3 hr, absence of insulin) | insulin-stimulated glucose uptake (rat L6 myoblast cells; 50 μM for 3 hr, then 100 nM insulin 20 min) | time to stimulation of glucose uptake (rat L6 myoblast cells; 50 μM for various times) [min] | glucose uptake compared with insulin (rat L6 myoblast cells; [5]) | glucose uptake (rat L6 myoblast cells; various concentrations for 3 hr, no insulin) | intracellular cAMP [3] | intracellular cAMP (endogenous human RUP43 [4]; HEK293 cells transfected with endogenous human RUP43, serially diluted compound, 1 hour) | agonist of RUP43 (identification) (endogenous human RUP43 [4]; whole-cell cAMP, HEK293 transfected with endogenous human RUP43)
1 | O=C(Cc1ccccc1Cl)N1CCC(c2nc(C(=O)N3CCCc4ccccc43)cs2)CC1 [Compound 2, 2-(2-Chloro-phenyl)-1-{4-[4-(3,4-dihydro-2H-quinoline-1-carbonyl)-thiazol-2-yl]-piperidin-1-yl}-ethanone] | comparable to the level of insulin-stimulated glucose uptake | enhanced insulin-stimulated glucose uptake | stimulates glucose uptake | stimulates glucose uptake | enhances insulin-stimulated glucose uptake | agonist of endogenous human RUP43 | 0.212 | approximately 92 % of control | rapid stimulation of glucose uptake | more effectively than insulin | efficacious at stimulating glucose uptake; also recorded: stimulates glucose uptake | enhances insulin-stimulated glucose uptake | ≤ 20 | greater glucose uptake in rat L6 myoblast than did insulin | stimulates glucose uptake |  |  | 
2 | CN(C(=O)c1csc(C2CCN(C(=O)Cc3ccccc3Cl)CC2)n1)c1c2c(nn1C)CCCC2 [Compound 1, 2-{1-[2-(2-Chloro-phenyl)-acetyl]-piperidin-4-yl}-thiazole-4-carboxylicacid methyl-(2-methyl-4,5,6,7-tetrahydro-2H-indazol-3-yl)-amide] |  |  |  |  |  |  |  |  |  |  |  |  |  |  |  | not in Mock transfected cells | in a dose dependent manner, led to an increase in intracellular cAMP | agonist of RUP43
